Patent US9790221B2, “Heteroaryl compounds as IRAK inhibitors and uses thereof” (Merck Patent GmbH, priority 2014, dated 2017)
Counter-ions that a name gives are not always drawn.

Assays:
[1] = test system: TLR7 induced IL-6 secretion in human mononuclear cells (PBMC's); assay: TLR7 induced IL-6 in human PBMC's; format: cell-based; conditions: Homo sapiens, PBMC, read-out: TLR7 induced IL-6 secretion in hPBMC's (IC50)
Procedure: TLR7 Induced IL-6 in Human PBMC's
Human PBMC assay was used as one of the functional assay a to monitor the activity of IRAK1 and IRAK4 small molecule inhibitors on TLR7 induced IL-6 secretion in human mononuclear cells (PBMC's). Human PBMCs were prepared from buffy coats (whole blood enriched with leukocytes and platelets) obtained from healthy volunteers used either fresh or frozen are plated in assay media (RPMI+2% P/S/L-glu+10% HI-FBS) and pre-treated with compounds in DMSO/media (range of concentrations from 25 uM to 0.4 nM) or controls (0.25% DMSO) for 30 minutes at 37° C. in assay media. Following pre-treatment with IRAK1 and IRAK4 inhibitors, PBMC's were stimulated with TLR7 specific ligand (2 uM) overnight (16-18 hrs) at 37° C. After incubation supernatant was transferred to 384 well PE AlphaPlate-384 (6005350) and IL-6 is quantified using Perkin Elmer IL-6 Alpha LISA kit (AL223C). Plates were read on an Envision® plate reader with Alpha Technology®.

IRAK4 = IRAK4 (Homo sapiens (Human), UniProt Q9NWZ3); assay: IRAK4 enzymatic assay; format: biochemical
In short: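 Radiometric streptavidin FlashPlate read: 3 h, 30° C incubation of His-TEV-IRAK4 (20 ng/well), STK1-biotin substrate (300 nM) and ATP (2 μM, [^33P]-labelled) in Hepes pH 7.0, MgCl2 10 mM, MnCl2 5 mM. Compounds from 20 µM down to 1 nM, 2% DMSO controls; reaction quenched with EDTA.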

[2] = molecular target: IRAK1 (His-TEV-IRAK1 (194-712)) (Homo sapiens (Human), UniProt P51617); assay: IRAK1 enzymatic assay; format: biochemical
In short: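 Compounds ([…] down to 1 nM) were incubated 3 h at 30° C with His-TEV-IRAK1 (194-712, 15 ng/well) and 1 μM [33P]-labelled ATP in 50 mM Hepes pH 7.0, 10 mM MgCl2. After EDTA stop and washing, the retained autophosphorylation signal was measured by scintillation in streptavidin-coated plates.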

IRAK4, sequence (Q9NWZ3 whole entry): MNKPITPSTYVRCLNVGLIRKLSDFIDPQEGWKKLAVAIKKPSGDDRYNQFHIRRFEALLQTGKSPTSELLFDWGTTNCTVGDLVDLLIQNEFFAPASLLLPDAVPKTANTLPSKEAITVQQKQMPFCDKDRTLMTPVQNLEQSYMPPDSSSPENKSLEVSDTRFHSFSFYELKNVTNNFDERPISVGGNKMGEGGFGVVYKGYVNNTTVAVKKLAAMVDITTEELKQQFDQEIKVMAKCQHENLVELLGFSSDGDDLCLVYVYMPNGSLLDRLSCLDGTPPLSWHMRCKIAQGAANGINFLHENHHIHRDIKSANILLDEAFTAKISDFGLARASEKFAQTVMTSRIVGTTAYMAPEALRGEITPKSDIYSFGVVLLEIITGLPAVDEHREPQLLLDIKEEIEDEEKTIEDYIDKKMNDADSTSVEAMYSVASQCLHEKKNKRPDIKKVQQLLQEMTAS
IRAK1 (His-TEV-IRAK1 (194-712)), sequence (P51617 194-712): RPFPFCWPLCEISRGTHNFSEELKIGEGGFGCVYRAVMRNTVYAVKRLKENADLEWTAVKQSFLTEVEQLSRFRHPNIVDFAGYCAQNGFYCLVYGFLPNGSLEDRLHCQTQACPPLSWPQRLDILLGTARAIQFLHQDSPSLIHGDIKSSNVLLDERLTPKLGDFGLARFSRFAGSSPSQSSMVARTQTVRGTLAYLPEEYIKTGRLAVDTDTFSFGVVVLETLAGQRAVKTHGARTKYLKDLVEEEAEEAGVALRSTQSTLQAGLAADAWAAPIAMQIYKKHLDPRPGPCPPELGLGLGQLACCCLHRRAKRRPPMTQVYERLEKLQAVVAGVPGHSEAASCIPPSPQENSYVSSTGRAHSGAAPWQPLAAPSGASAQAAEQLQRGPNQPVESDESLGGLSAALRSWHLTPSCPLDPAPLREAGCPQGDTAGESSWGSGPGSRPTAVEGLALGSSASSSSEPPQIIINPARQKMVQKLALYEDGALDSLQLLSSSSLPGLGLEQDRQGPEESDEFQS

Structure (SMILES)	IC50 (IRAK4)	IC50 [2]	IC50 [1]
Cn1cc(-c2cccc(-c3ncc(-c4cnn(C)c4)c(N[C@H]4CC[C@@H](N5CCOCC5)CC4)n3)c2)cn1 [Example 233]	< 0.1 µM	0.1 to 1 µM	0.1 to 1 µM
Cn1cc(-c2cccc(-c3ncc(-c4cnn(C)c4)c(OCC4COC4)n3)c2)cn1 [Example 11, 5-(1-Methyl-1H-pyrazol-4-yl)-2-[3-(1-methyl-1H-pyrazol-4-yl)-phenyl]-4-(oxetan-3-ylmethoxy)-pyrimidine]	0.1 to 1 µM	> 5 µM	1 to 5 µM
Cc1nnc(-c2cnc(-c3cccc(-c4cnn(C)c4)c3)nc2NC2CCC(NS(=O)(=O)C3CC3)CC2)s1 (centres unmarked) [Example 209]	< 0.1 µM	< 0.1 µM	0.1 to 1 µM
Cn1cc(-c2cccc(-c3ncc(-c4cnn(C)c4)c(N[C@H]4CC[C@H](N)CC4)n3)c2)cn1 [Example 143]	< 0.1 µM	0.1 to 1 µM	0.1 to 1 µM
CC(C)Nc1nc(-c2cccc(-c3cnn(C)c3)c2)ncc1-c1cnn(C)c1 [Example 260]	0.1 to 1 µM	0.1 to 1 µM	1 to 5 µM
Cn1cc(-c2cccc(-c3ncc(-c4cnn(C)c4)c(NCC4[C@H]5CNC[C@@H]45)n3)c2)cn1 (some centres unmarked) [Example 77]	0.1 to 1 µM	> 5 µM	1 to 5 µM
Cn1cc(-c2cccc(-c3ncc(-c4cnn(C)c4)c(NCC4CCCC(O)C4)n3)c2)cn1 (centres unmarked) [Example 123]	< 0.1 µM	0.1 to 1 µM	0.1 to 1 µM
Cn1cc(-c2cccc(-c3ncc(-c4ccn(C)n4)c(NC4CC(CN)(CCl)C4)n3)c2)cn1 (centres unmarked) [Example 99]	< 0.1 µM	0.1 to 1 µM	0.1 to 1 µM
Cn1cc(-c2cccc(-c3ncc(-c4cnn(C)c4)c(NCCCCO)n3)c2)cn1 [Example 101]	< 0.1 µM	1 to 5 µM	0.1 to 1 µM
Cn1cc(-c2cccc(-c3ncc(-c4cnn(C)c4)c(NCCN4CCOCC4)n3)c2)cn1 [Example 36]	0.1 to 1 µM	1 to 5 µM	0.1 to 1 µM
Cn1cc(-c2cccc(-c3ncc(-c4nnc(C(=O)N5CC[C@@H](O)C5)s4)c(NC4CCCNC4)n3)c2)cn1 (stereo partly drawn) [Example 20, ((R)-3-Hydroxy-pyrrolidin-1-yl)-{5-[2-[3-(1-methyl-1H-pyrazol-4-yl)-phenyl]-4-(piperidin-3-ylamino)-pyrimidin-5-yl]-[1,3,4]thiadiazol-2-yl}-methanone Hydrochloride]	1 to 5 µM	0.1 to 1 µM	0.1 to 1 µM
Cn1cc(-c2cccc(-c3ncc(-c4cnn(C)c4)c(NCCCO)n3)c2)cn1 [Example 35]	0.1 to 1 µM	0.1 to 1 µM	1 to 5 µM
Cn1cc(-c2cccc(-c3ncc(-c4ccn(C)n4)c(O[C@@H]4CCC[C@@H](N)[C@@H]4O)n3)c2)cn1 [Example 132]		0.1 to 1 µM	0.1 to 1 µM
Cn1cc(-c2cccc(-c3ncc(-c4cnn(C)c4)c(N[C@H]4CCN(S(C)(=O)=O)C4)n3)c2)cn1 [Example 170]		0.1 to 1 µM	1 to 5 µM
Cc1nnc(-c2cnc(-c3cccc(-c4cnn(C)c4)c3)nc2NC2CCN(S(C)(=O)=O)CC2)s1 [Example 151]		0.1 to 1 µM	0.1 to 1 µM
Cn1cc(-c2cccc(-c3ncc(-c4cnn(C)c4)c(NCCC4CCCCN4S(C)(=O)=O)n3)c2)cn1 (centres unmarked) [Example 259]	0.1 to 1 µM	> 5 µM	
Cn1cc(-c2cccc(-c3ncc(-c4ccn(C)n4)c(NCCN4CCOC4=O)n3)c2)cn1 [Example 91]	> 5 µM	> 5 µM	
Cn1cc(-c2cccc(-c3ncc(-c4cnn(C)c4)c(NCCCN)n3)c2)cn1 [Example 89]	1 to 5 µM	> 5 µM	
Cn1cc(-c2cccc(-c3ncc(-c4cnn(C)c4)c(NC4CCC(CNS(C)(=O)=O)CC4)n3)c2)cn1 (centres unmarked) [Example 201]	< 0.1 µM	1 to 5 µM	
Cn1cc(-c2cccc(-c3ncc(-c4ccn(C)n4)c(NC4CC4)n3)c2)cn1 [Example 29]	0.1 to 1 µM	1 to 5 µM	
Cn1cc(-c2cccc(-c3ncc(-c4cnn(C)c4)c(NCC4(O)CCNCC4)n3)c2)cn1 [Example 240]	0.1 to 1 µM	> 5 µM	
Cn1cc(-c2cccc(-c3ncc(-c4cnn(C)c4)c(NC[C@H]4CC[C@@H](O)CC4)n3)c2)cn1 [Example 155]	< 0.1 µM	> 5 µM	
Cn1cc(-c2cccc(-c3ncc(-c4cnn(C)c4)c(NC4CC(CO)(CO)C4)n3)c2)cn1 [Example 180]	< 0.1 µM	0.1 to 1 µM	

Continued, in another order:

IC50 (IRAK4)	IC50 [2]	Structure (SMILES)	IC50 [1]
< 0.1 µM	1 to 5 µM	CC(=O)NC1(CNc2nc(-c3cccc(-c4cnn(C)c4)c3)ncc2-c2cnn(C)c2)CCCCC1 [Example 256]	1 to 5 µM
< 0.1 µM	0.1 to 1 µM	Cn1cc(-c2cccc(-c3ncc(-c4cnn(C)c4)c(N[C@H]4CC[C@@H](N)CC4)n3)c2)cn1 [Example 44]	0.1 to 1 µM
< 0.1 µM	1 to 5 µM	CC(C)Nc1cc(-c2cccc(-c3cnn(C)c3)c2)ncc1-c1nnc(C(=O)N2CC[C@@H](O)C2)s1 [Example 21, ((R)-3-Hydroxy-pyrrolidin-1-yl)-(5-{4-isopropylamino-6-[3-(1-methyl-1H-pyrazol-4-yl)-phenyl]-pyridin-3-yl}-[1,3,4]thiadiazol-2-yl)-methanone]	1 to 5 µM
< 0.1 µM	0.1 to 1 µM	Cn1cc(-c2cccc(-c3ncc(-c4cnn(C)c4)c(NC4CCC(CN)CC4)n3)c2)cn1 (centres unmarked) [Example 194]	0.1 to 1 µM
< 0.1 µM	0.1 to 1 µM	Cn1cc(-c2cccc(-c3ncc(-c4cnn(C)c4)c(NCC4COC4)n3)c2)cn1 [Example 63]	1 to 5 µM
< 0.1 µM	0.1 to 1 µM	Cn1cc(-c2cccc(-c3ncc(-c4cnn(C)c4)c(NCC4CCC(F)(F)CC4)n3)c2)cn1 [Example 136]	1 to 5 µM
0.1 to 1 µM	0.1 to 1 µM	Cn1cc(-c2cccc(-c3ncc(-c4cnn(C)c4)c(NC[C@H](O)CO)n3)c2)cn1 [Example 54]	1 to 5 µM
< 0.1 µM	0.1 to 1 µM	Cn1cc(-c2cccc(-c3ncc(-c4cnn(C)c4)c(NC4C5CCCC4CC(N)C5)n3)c2)cn1 (centres unmarked) [Example 153]	0.1 to 1 µM
< 0.1 µM	0.1 to 1 µM	Cn1cc(-c2cccc(-c3ncc(-c4cnn(C)c4)c(NCC4(O)COC4)n3)c2)cn1 [Example 52]	1 to 5 µM
< 0.1 µM	1 to 5 µM	Cn1cc(-c2cccc(-c3ncc(-c4cnn(C)c4)c(N[C@H]4CC[C@H](N)C4)n3)c2)cn1 [Example 185]	1 to 5 µM
0.1 to 1 µM	1 to 5 µM	Cn1cc(-c2cccc(-c3ncc(-c4cnn(C)c4)c(NCc4ccncc4)n3)c2)cn1 [Example 37]	1 to 5 µM
1 to 5 µM	> 5 µM	CC(=O)N[C@@H]1CCN(c2nc(-c3cccc(-c4cnn(C)c4)c3)ncc2-c2cnn(C)c2)C1 [Example 246]	
0.1 to 1 µM	> 5 µM	CC(=O)N1CCC(O)(CNc2nc(-c3cccc(-c4cnn(C)c4)c3)ncc2-c2cnn(C)c2)CC1 [Example 277]	
< 0.1 µM	< 0.1 µM	Cn1cc(-c2cccc(-c3ncc(-c4cnn(C)c4)c(NC4CCN(S(C)(=O)=O)CC4)n3)c2)cn1 [Example 14, (1-Methanesulfonyl-piperidin-4-yl)-{5-(1-methyl-1H-pyrazol-4-yl)-2-[3-(1-methyl-1H-pyrazol-4-yl)-phenyl]-pyrimidin-4-yl}-amine]	
0.1 to 1 µM	0.1 to 1 µM	Cn1cc(-c2cccc(-c3ncc(-c4ccn(C)n4)c(NC[C@H](O)CO)n3)c2)cn1 [Example 120]	
1 to 5 µM	1 to 5 µM	CC(=O)NCCNc1nc(-c2cccc(-c3cnn(C)c3)c2)ncc1-c1ccn(C)n1 [Example 73]	
< 0.1 µM	1 to 5 µM	Cn1cc(-c2cccc(-c3ncc(-c4cnn(C)c4)c(NC4CCC(=O)NC4)n3)c2)cn1 (centres unmarked) [Example 103]	
0.1 to 1 µM	0.1 to 1 µM	Cn1cc(-c2cccc(-c3ncc(-c4cnn(C)c4)c(NCCC4CCN(S(C)(=O)=O)C4)n3)c2)cn1 (centres unmarked) [Example 175]	
0.1 to 1 µM	> 5 µM	Cn1cc(-c2cccc(-c3ncc(-c4cnn(C)c4)c(N[C@H]4C[C@H](N)C4)n3)c2)cn1 [Example 197]	
1 to 5 µM	> 5 µM	Cn1cc(-c2cccc(-c3ncc(-c4cnn(C)c4)c(N4CCC(CCO)C4)n3)c2)cn1 (centres unmarked) [Example 228]	
0.1 to 1 µM	1 to 5 µM	Cn1cc(-c2cccc(-c3ncc(-c4cnn(C)c4)c(N4CCC(NS(C)(=O)=O)CC4)n3)c2)cn1 [Example 250]	
< 0.1 µM	0.1 to 1 µM	Cn1cc(-c2cccc(-c3ncc(-c4cnn(C)c4)c(NC[C@H]4CCN(S(C)(=O)=O)C4)n3)c2)cn1 [Example 174]	
